Experimental data taken from patent US20250197384A1, “AZOLE COMPOUND AND ANTIFUNGAL AGENT” (NIHON NOHYAKU CO., LTD., priority 2022, published 2025).
Values after ≈ are worked out from the molar mass of the structure shown.

What was measured:
Format in all cases: cell-based
[1] = tested on: Aspergillus fumigatus TIMM0063; test: In vitro anti-Aspergillus activity test; conditions: Table 22, 35° C. for 48 hr, alamar Blue, minimum concentration showing 80% or more inhibition; for MIC: Aspergillus fumigatus, read-out: minimum inhibitory concentration against various fungi (MIC) A. fumigatus
Description: Aspergillus fumigatus TIMM0063 was used as the strain. The test fungi were cultured on a Potato dextrose agar slant medium at 35° C. for 4 days, and then sterilized saline containing 0.1% (v/v) Tween 80 was added to release the conidia. This conidial suspension was filtered through sterile gauze, and the number of conidia was counted using a hemocytometer. The same solution was adjusted to a conidial concentration of 1×10^6 conidia/mL, and this was used as an inoculum. Each compound was dissolved in dimethyl sulfoxide to a predetermined concentration, and diluted 50-fold with 0.165 M MOPS buffered RPMI 1640 liquid medium, and each diluted solution was dispensed into a 96-well microplate by each 100 μL. The inoculum was diluted 50-fold with 0.165 M MOPS buffered RPMI 1640 liquid medium containing 20% alamar Blue™, and the diluted solution was inoculated into the 96-well microplate containing the compound by each 100 μL (final inoculum amount 1.0×10^4 conidia/mL). After static culture at 35° C. for 48 hr, the degree of color development of the alamar Blue™ was measured using a microplate reader (O.D. 570-595 nm), and the minimum concentration showing 80% or more inhibition was defined as the minimum inhibitory concentration (MIC).

[2] = tested on: Trichophyton mentagrophytes TIMM2789; test: In vitro anti-tinea fungus activity test (T. mentagrophytes); conditions: Table 22, 27° C. for 3 days, alamar Blue, minimum concentration showing 80% or more inhibition; for MIC: Trichophyton mentagrophytes, 72 h, read-out: minimum inhibitory concentration against various fungi (MIC) T. mentagrophytes
Description: (§1) Trichophyton rubrum NBRC6203 and Trichophyton mentagrophytes TIMM2789 were used as the strains. The test fungi were cultured on a Sabouraud dextrose agar slant medium at 27° C. for 10-13 days, and then suspended in sterilized saline. The number of cells in this suspension was counted using a hemocytometer, and the same suspension was adjusted to a cell concentration of 2×10^6 conidia/mL, and this was used as an inoculum. Each compound was dissolved in dimethyl sulfoxide to a predetermined concentration, and diluted 50-fold with 0.165 M MOPS buffered RPMI 1640 liquid medium, and each diluted solution was dispensed into a 96-well microplate by each 100 μL. The inoculum was diluted 50-fold with 0.165 M MOPS buffered RPMI 1640 liquid medium containing 20% alamar Blue™, and the diluted solution was inoculated into the 96-well microplate containing the compound by each 100 μL (final inoculum amount 2×10^4 conidia/mL). After static culture at 27° C. for 3 days (Trichophyton mentagrophytes) or for 5 days (Trichophyton rubrum), the degree of color development of the alamar Blue™ was measured using a microplate reader (O.D. 570-595 nm), and the minimum concentration showing 80% or more inhibition was defined as the minimum inhibitory concentration (MIC).

[3] = tested on: Trichophyton rubrum NBRC6203; test: In vitro anti-tinea fungus activity test (T. rubrum); conditions: Table 22, 27° C. for 5 days, alamar Blue, minimum concentration showing 80% or more inhibition; for MIC: Trichophyton rubrum, 120 h, read-out: minimum inhibitory concentration against various fungi (MIC) T. rubrum
Description: as §1

[4] = tested on: Candida albicans NBRC1270; test: In vitro anti-Candida activity test; conditions: Table 22, 35° C. for 24 hr, alamar Blue, minimum concentration showing 80% or more inhibition; for MIC: Candida albicans, read-out: minimum inhibitory concentration against various fungi (MIC) C. albicans
Description: Candida albicans NBRC1270 was used as the strain. The test fungi were cultured on a Sabouraud dextrose agar slant medium at 35° C. for 24 hr, and then suspended in sterilized saline. The number of cells in this suspension was counted using a hemocytometer, and the same suspension was adjusted to a cell concentration of 1.5×10^5 cells/mL, and this was used as an inoculum. Each compound was dissolved in dimethyl sulfoxide to a predetermined concentration, and diluted 50-fold with 0.165 M MOPS buffered RPMI 1640 liquid medium, and each diluted solution was dispensed into a 96-well microplate by each 100 μL. The inoculum was diluted 50-fold with 0.165 M MOPS buffered RPMI 1640 liquid medium containing 20% alamar Blue™, and the diluted solution was inoculated into the 96-well microplate containing the compound by each 100 μL (final inoculum amount 1.5×10^3 cells/mL). After static culture at 35° C. for 24 hr, the degree of color development of the alamar Blue™ was measured using a microplate reader (O.D. 570-595 nm), and the minimum concentration showing 80% or more inhibition was defined as the minimum inhibitory concentration (MIC).

SMILES | minimum inhibitory concentration against various fungi (MIC) A. fumigatus [1] [µg/mL] | minimum inhibitory concentration against various fungi (MIC) T. mentagrophytes [2] [µg/mL] | minimum inhibitory concentration against various fungi (MIC) T. rubrum [3] [µg/mL] | minimum inhibitory concentration against various fungi (MIC) C. albicans [4] [µg/mL] | MIC [1] [µg/mL] | MIC [2] [µg/mL] | MIC [3] [µg/mL] | MIC [4] [µg/mL]
N#C/C(=C1/SCC(c2ncc(N)cc2Cl)S1)n1ccnc1 (racemic) [Compound No. 2] | 0.01 (≈ 0.0298 µM) | 0.01 (≈ 0.0298 µM) | 0.01 (≈ 0.0298 µM) | 1 (≈ 2.98 µM) |  |  |  | 
CCOC(=O)Nc1cnc(C2CS/C(=C(/C#N)n3cncn3)S2)c(F)c1 (centres unmarked) [Compound No. 10, ethyl (E)-(6-{2-[cyano(1H-1,2,4-triazol-1-yl)methylene]-1,3-dithiolan-4-yl}-5-fluoropyridin-3-yl)carbamate] |  |  |  |  | 0.025 (≈ 0.0637 µM) | 0.01 (≈ 0.0255 µM) | 0.01 (≈ 0.0255 µM) | 0.05 (≈ 0.127 µM)
COC(=O)Nc1cnc(C2CS/C(=C(/C#N)n3ccnc3)S2)c(Cl)c1 (centres unmarked) [Compound No. 15, methyl (E)-(5-chloro-6-{2-[cyano(1H-imidazol-1-yl)methylene]-1,3-dithiolan-4-yl}pyridin-3-yl)carbamate] |  |  |  |  | 0.005 (≈ 0.0127 µM) | 0.01 (≈ 0.0254 µM) | 0.01 (≈ 0.0254 µM) | 0.0025 (≈ 0.00635 µM)
CCO/N=C/c1cnc(C2CS/C(=C(/C#N)n3ccnc3)S2)c(Cl)c1 (centres unmarked) [Compound No. 25, (E)-2-(4-{3-chloro-5-[(E)-(ethoxyimino)methyl]pyridin-2-yl}-1,3-dithiolan-2-ylidene)-2-(1H-imidazol-1-yl)acetonitrile] |  |  |  |  | 0.0025 (≈ 0.00638 µM) | ≤ 0.001 | ≤ 0.001 | 0.0006 (≈ 0.00153 µM)
N#C/C(=C1/SCC(c2ncc(/C(N)=N/OCc3ccccc3)cc2Cl)S1)n1ccnc1 (centres unmarked) [Compound No. 27, (Z)—N′-(benzyloxy)-5-chloro-6-{(E)-2-[cyano(1H-imidazol-1-yl)methylene]-1,3-dithiolan-4-yl}nicotinimidamide] |  |  |  |  | 0.005 (≈ 0.0107 µM) | ≤ 0.001 | ≤ 0.001 | 0.0013 (≈ 0.00277 µM)
N#CCOc1cnc(C2CS/C(=C(/C#N)n3ccnc3)S2)c(Cl)c1 (centres unmarked) [compound 4] | 0.005 (≈ 0.0133 µM) | 0.01 (≈ 0.0266 µM) | 0.01 (≈ 0.0266 µM) | 1 (≈ 2.66 µM) |  |  |  | 
CCOC(=O)Nc1cnc(C2CS/C(=C(/C#N)n3cncn3)S2)c(Cl)c1 (centres unmarked) [compound 11] | 0.005 (≈ 0.0122 µM) | 0.01 (≈ 0.0245 µM) | ≤0.001 | 0.01 (≈ 0.0245 µM) |  |  |  | 

Second part, the compound after the results:

minimum inhibitory concentration against various fungi (MIC) A. fumigatus [1] [µg/mL] | minimum inhibitory concentration against various fungi (MIC) T. mentagrophytes [2] [µg/mL] | minimum inhibitory concentration against various fungi (MIC) T. rubrum [3] [µg/mL] | minimum inhibitory concentration against various fungi (MIC) C. albicans [4] [µg/mL] | MIC [1] [µg/mL] | MIC [2] [µg/mL] | MIC [3] [µg/mL] | MIC [4] [µg/mL] | SMILES
0.0013 (≈ 0.00325 µM) | ≤0.001 | ≤0.001 | 0.1 (≈ 0.25 µM) |  |  |  |  | N#C/C(=C1/SCC(c2ncc(Br)cc2Cl)S1)n1ccnc1 (racemic) [Compound No. 1]
 |  |  |  | 0.005 (≈ 0.0116 µM) | 0.01 (≈ 0.0231 µM) | 0.01 (≈ 0.0231 µM) | 0.01 (≈ 0.0231 µM) | CCCC1CC(c2cnc(C3CS/C(=C(/C#N)n4ccnc4)S3)c(Cl)c2)=NO1 (centres unmarked) [Compound No. 6, (E)-2-{4-[3-chloro-5-(5-propyl-4,5-dihydroisoxazol-3-yl)pyridin-2-yl]-1,3-dithiolan-2-ylidene}-2-(1H-imidazol-1-yl)acetonitrile]
0.0025 (≈ 0.00721 µM) | ≤0.001 | ≤0.001 | 0.1 (≈ 0.288 µM) |  |  |  |  | C=Cc1cnc(C2CS/C(=C(/C#N)n3ccnc3)S2)c(Cl)c1 (centres unmarked) [compound 3]
0.005 (≈ 0.0127 µM) | 0.01 (≈ 0.0253 µM) | ≤0.001 | 0.01 (≈ 0.0253 µM) |  |  |  |  | COC(=O)Nc1cnc(C2CS/C(=C(/C#N)n3cncn3)S2)c(Cl)c1 (centres unmarked) [compound 7]
